Test results taken from the NIST ThermoML archive (doi:10.1021/je0301040).
Numbers after ± are expanded uncertainties.

Experiment: xn = mol fraction of the nth substance listed

FC(Cl)(Cl)Cl [trichlorofluoromethane] + FC(F)Cl
mass density (374.97 K, 3116.9 kPa, Liquid, Pycnometric method, x1 = 0.8336): 1216.83 ± 2.6 kg/m3
mass density (374.97 K, 14051 kPa, Liquid, Pycnometric method, x1 = 0.8336): 1279.66 ± 2 kg/m3
mass density (374.97 K, 21566 kPa, Liquid, Pycnometric method, x1 = 0.8336): 1310.86 ± 1.9 kg/m3
mass density (374.97 K, 27844 kPa, Liquid, Pycnometric method, x1 = 0.8336): 1332.88 ± 1.7 kg/m3
mass density (374.97 K, 35188 kPa, Liquid, Pycnometric method, x1 = 0.8336): 1355.43 ± 1.7 kg/m3
mass density (374.97 K, 42212 kPa, Liquid, Pycnometric method, x1 = 0.8336): 1374.59 ± 1.6 kg/m3
mass density (374.97 K, 48936 kPa, Liquid, Pycnometric method, x1 = 0.8336): 1391.15 ± 1.6 kg/m3
mass density (374.97 K, 56118 kPa, Liquid, Pycnometric method, x1 = 0.8336): 1407.35 ± 1.6 kg/m3
mass density (374.97 K, 63201 kPa, Liquid, Pycnometric method, x1 = 0.8336): 1422.2 ± 1.6 kg/m3
mass density (374.97 K, 67438 kPa, Liquid, Pycnometric method, x1 = 0.8336): 1430.6 ± 1.6 kg/m3
mass density (374.98 K, 99.9 kPa, Fluid (supercritical or subcritical phases), Burnett expansion method, x1 = 0.832): 4.192 ± 0.084 kg/m3
mass density (374.98 K, 100.73 kPa, Fluid (supercritical or subcritical phases), Burnett expansion method, x1 = 0.832): 4.2353 ± 0.085 kg/m3
mass density (374.98 K, 141.34 kPa, Fluid (supercritical or subcritical phases), Burnett expansion method, x1 = 0.832): 5.9685 ± 0.12 kg/m3
mass density (374.98 K, 195.81 kPa, Fluid (supercritical or subcritical phases), Burnett expansion method, x1 = 0.832): 8.3248 ± 0.17 kg/m3
mass density (374.98 K, 197.47 kPa, Fluid (supercritical or subcritical phases), Burnett expansion method, x1 = 0.832): 8.4097 ± 0.17 kg/m3
mass density (374.98 K, 216.98 kPa, Fluid (supercritical or subcritical phases), Burnett expansion method, x1 = 0.832): 9.2699 ± 0.19 kg/m3
mass density (374.98 K, 272.55 kPa, Fluid (supercritical or subcritical phases), Burnett expansion method, x1 = 0.832): 11.7304 ± 0.24 kg/m3
mass density (374.98 K, 275.03 kPa, Fluid (supercritical or subcritical phases), Burnett expansion method, x1 = 0.832): 11.8505 ± 0.24 kg/m3
mass density (374.98 K, 301.92 kPa, Fluid (supercritical or subcritical phases), Burnett expansion method, x1 = 0.832): 13.0615 ± 0.26 kg/m3
mass density (374.98 K, 377.56 kPa, Fluid (supercritical or subcritical phases), Burnett expansion method, x1 = 0.832): 16.5279 ± 0.33 kg/m3
mass density (374.98 K, 381 kPa, Fluid (supercritical or subcritical phases), Burnett expansion method, x1 = 0.832): 16.6977 ± 0.33 kg/m3
mass density (374.98 K, 417.41 kPa, Fluid (supercritical or subcritical phases), Burnett expansion method, x1 = 0.832): 18.4053 ± 0.37 kg/m3
mass density (374.98 K, 518.62 kPa, Fluid (supercritical or subcritical phases), Burnett expansion method, x1 = 0.832): 23.2877 ± 0.47 kg/m3
mass density (374.98 K, 523.72 kPa, Fluid (supercritical or subcritical phases), Burnett expansion method, x1 = 0.832): 23.528 ± 0.47 kg/m3
mass density (374.98 K, 569 kPa, Gas, isochoric method, x1 = 0.832): 201.277 ± 0.14 kg/m3
mass density (374.98 K, 1592.7 kPa, Liquid, Pycnometric method, x1 = 0.8336): 1204.96 ± 2.5 kg/m3
mass density (374.98 K, 1802 kPa, Liquid, Pycnometric method, x1 = 0.8336): 1206.68 ± 2.7 kg/m3
mass density (374.98 K, 3500.8 kPa, Liquid, Pycnometric method, x1 = 0.8336): 1219.67 ± 2.6 kg/m3
mass density (374.98 K, 7519.3 kPa, Liquid, Pycnometric method, x1 = 0.8336): 1245.72 ± 2.3 kg/m3
mass density (375.98 K, 3481.1 kPa, Liquid, isochoric method, x1 = 0.832): 1216.37 ± 0.41 kg/m3
mass density (375.98 K, 3481.3 kPa, Liquid, isochoric method, x1 = 0.832): 1216.37 ± 0.41 kg/m3
mass density (380.97 K, 5662.2 kPa, Liquid, isochoric method, x1 = 0.832): 1216.02 ± 0.41 kg/m3
mass density (385.97 K, 7843.6 kPa, Liquid, isochoric method, x1 = 0.832): 1215.66 ± 0.4 kg/m3
mass density (385.97 K, 7845.9 kPa, Liquid, isochoric method, x1 = 0.832): 1215.66 ± 0.4 kg/m3
mass density (389.97 K, 399.7 kPa, Gas, isochoric method, x1 = 0.832): 131.569 ± 0.092 kg/m3
mass density (389.97 K, 864.3 kPa, Gas, isochoric method, x1 = 0.832): 304.496 ± 0.21 kg/m3
mass density (399.96 K, 7536.5 kPa, Liquid, Pycnometric method, x1 = 0.8336): 1168.49 ± 2.5 kg/m3
mass density (399.96 K, 49152 kPa, Liquid, Pycnometric method, x1 = 0.8336): 1348.85 ± 1.5 kg/m3
mass density (399.97 K, 617 kPa, Gas, isochoric method, x1 = 0.832): 201.042 ± 0.14 kg/m3
mass density (399.97 K, 3101 kPa, Liquid, Pycnometric method, x1 = 0.8336): 1123.2 ± 3 kg/m3
mass density (399.97 K, 3459.9 kPa, Liquid, Pycnometric method, x1 = 0.8336): 1127.62 ± 3.1 kg/m3
mass density (399.97 K, 3838.5 kPa, Liquid, Pycnometric method, x1 = 0.8336): 1132.14 ± 3.1 kg/m3
mass density (399.97 K, 5333.9 kPa, Liquid, Pycnometric method, x1 = 0.8336): 1148.2 ± 2.9 kg/m3
mass density (399.97 K, 14526 kPa, Liquid, Pycnometric method, x1 = 0.8336): 1217.33 ± 2 kg/m3
mass density (399.97 K, 21523 kPa, Liquid, Pycnometric method, x1 = 0.8336): 1253.75 ± 1.8 kg/m3
mass density (399.97 K, 28491 kPa, Liquid, Pycnometric method, x1 = 0.8336): 1283.14 ± 1.6 kg/m3
mass density (399.97 K, 35354 kPa, Liquid, Pycnometric method, x1 = 0.8336): 1307.71 ± 1.6 kg/m3
mass density (399.97 K, 56281 kPa, Liquid, Pycnometric method, x1 = 0.8336): 1366.92 ± 1.4 kg/m3
mass density (399.97 K, 63214 kPa, Liquid, Pycnometric method, x1 = 0.8336): 1383.07 ± 1.5 kg/m3
mass density (399.98 K, 2379 kPa, Liquid, Pycnometric method, x1 = 0.8336): 1111.44 ± 2.9 kg/m3
mass density (399.98 K, 2438.9 kPa, Liquid, Pycnometric method, x1 = 0.8336): 1114.58 ± 2.8 kg/m3
mass density (399.98 K, 2791.2 kPa, Liquid, Pycnometric method, x1 = 0.8336): 1119.29 ± 3 kg/m3
mass density (399.98 K, 41888 kPa, Liquid, Pycnometric method, x1 = 0.8336): 1328.37 ± 1.5 kg/m3
mass density (404.97 K, 909.7 kPa, Gas, isochoric method, x1 = 0.832): 304.283 ± 0.24 kg/m3
mass density (404.97 K, 1209.7 kPa, Gas, isochoric method, x1 = 0.832): 426.452 ± 0.33 kg/m3
mass density (409.97 K, 5121.7 kPa, Liquid, isochoric method, x1 = 0.832): 1111.12 ± 0.4 kg/m3
mass density (414.97 K, 1254.6 kPa, Gas, isochoric method, x1 = 0.832): 426.252 ± 0.35 kg/m3
mass density (414.97 K, 1558.2 kPa, Gas, isochoric method, x1 = 0.832): 556.482 ± 0.46 kg/m3
mass density (415.97 K, 7015.9 kPa, Liquid, isochoric method, x1 = 0.832): 1110.75 ± 0.39 kg/m3
mass density (419.96 K, 1587.9 kPa, Gas, isochoric method, x1 = 0.832): 556.352 ± 0.51 kg/m3
mass density (421.97 K, 8915.8 kPa, Liquid, isochoric method, x1 = 0.832): 1110.38 ± 0.4 kg/m3
mass density (424.96 K, 76.05 kPa, Fluid (supercritical or subcritical phases), Burnett expansion method, x1 = 0.832): 2.7936 ± 0.056 kg/m3
mass density (424.96 K, 106.8 kPa, Fluid (supercritical or subcritical phases), Burnett expansion method, x1 = 0.832): 3.939 ± 0.079 kg/m3
mass density (424.96 K, 136.17 kPa, Fluid (supercritical or subcritical phases), Burnett expansion method, x1 = 0.832): 5.049 ± 0.1 kg/m3
mass density (424.96 K, 191.33 kPa, Fluid (supercritical or subcritical phases), Burnett expansion method, x1 = 0.832): 7.117 ± 0.14 kg/m3
mass density (424.96 K, 210.5 kPa, Fluid (supercritical or subcritical phases), Burnett expansion method, x1 = 0.832): 7.8282 ± 0.16 kg/m3
mass density (424.96 K, 268.07 kPa, Fluid (supercritical or subcritical phases), Burnett expansion method, x1 = 0.832): 10.034 ± 0.2 kg/m3
